Consider 15 molecules from patent US20130158112A1, “COMPOSITIONS AND METHODS FOR INHIBITING BETA AMYLOID SECRETION” (priority 2011, published 2013).

The subject of series [1] is Aβ secretion. Kind of series: Secreted total Aβ ELISA in conditioned media of H4βAPP695 wt cells. The settings on record: for inhibition at 10 µM / inhibition at 30 µM: Homo sapiens, 24 h, H4βAPP695 wt cells; for inhibition at 10 µM: read-out: Total Aβ (% decrease) 10 μM Mean; for inhibition at 30 µM: read-out: Total Aβ (% decrease) 30 μM Mean; for Aβ secretion inhibiting activity (structure activity summary): in words. The format is cell-based, human. The procedure: H4βAPP695 wt cells, a human […] cell line stably transfected with a wtβAPP695 expression vector construct under the control of a CMV promoter (kindly provided by Dr. Chris Eckman from Mayo Clinic, Florida) were cultured as previously described. Twenty-four hours before drug treatment, the media was replaced with serum-free media. Cells were then incubated with drugs (dissolved in DMSO) or vehicle for 24 h for collection of conditioned media and cell lysates. For the PKC inhibitors experiment, three inhibitors were treated 30 min prior to drug challenge. Primary cortical neurons were prepared from embryonic day 18 APP and presenilin 1 (APPswe, PSEN1dE9) transgenic mice on the C57BL/6 genetic background (Jackson Laboratories, strain no. 5864) as previously described. THLE-3 human hepatoma cells (from ATCC) were plated in 24-well plates that were precoated with 10 μg/mL bovine serum albumin, 10 μg/mL fibronectin, and 30 μg/mL bovine type I collagen. The cells were grown in BEGM media (Clonetics) until confluent and treated with drugs at 20 μM for 24 h. This conditioned media was harvested, diluted 1:1 in serum-free medium, and incubated with H4βAPP695 wt cells for 24 h prior to analysis of secreted Aβ, which was compared to the effect of 10 μM drug treatments without prior incubation with the THLE-3 cells. Caco-2 cells (ATCC) were plated in 12-well plates with Transwell inserts (Costar) at 70000 cells per well and grown for 21 days. The media volume of the apical and basal chambers was 0.5 and 1.5 mL, respectively. Transepithelial resistance was measured in each well and found to be >160 Ω/cm^2. Drugs at 40 μM and 20 μg/mL of lucifer yellow were added in serum-free medium to the apical chamber. Four hours later, the basal chamber media was harvested and used to measure lucifer yellow fluorescence to confirm monolayer integrity as well as for treatment of H4βAPP695 wt cells for 24 h prior to analysis of secreted Aβ, which was compared to the effect of direct addition of 10 μM of the corresponding drug.

The test system of series [2] is H4βAPP695 wt cells. Kind of series: Cytotoxicity by total cell protein content (BCA) of H4βAPP695 wt cells. The settings on record: cytotoxicity.
Description: Cells were washed with cold phosphate buffered saline (PBS) and lysed on ice by vigorous mixing over 15 min with RIPA buffer containing 50 mM Tris-HCl (pH 8.0), 150 mM sodium chloride, 1% NP-40, 0.5% sodium deoxycholate, and 0.1% SDS, supplemented with 10% protease inhibitor cocktail and 2 mM PMSF. After centrifugation at 14000 g for 30 min to remove nuclei and other debris at 4° C., the protein content of the supernatants was measured using the BCA assay kit (Pierce).
The initial screen was performed in 96-well plates with drugs distributed by the hanging drop method yielding estimated drug levels of 10-25 μM. Total Aβ levels in the 24 h conditioned media were measured by a sandwich ELISA assay, and cytotoxicity was assessed by methylene blue staining of the cells in the wells, as previously described.

Molecule `COc1cccc(CSCCNC(=O)c2c(OC)cccc2OC)c1` [Compound 34, 2,6-Dimethoxy-N-[2-(3-methoxy-benzylsulfanyl)-ethyl]-benzamide] had a melting point of 41 to 43 °C. Also, in series [1], the inhibition at 10 µM was determined as 6.2%, the inhibition at 30 µM is -0.6% and the “Aβ secretion inhibiting activity (structure activity summary)” value (from here on “Aβ secretion inhibiting activity”) is “not well tolerated”. In series [2], the “Cell protein (% decrease) 10 μM Mean” value came to 0.5% and the “Cell protein (% decrease) 30 μM Mean” value was found to be 3.9%.
`O=C(NCCSCc1cccc(O)c1)c1c(O)cccc1O` [Compound 35, 2,6-Dihydroxy-N-[2-(3-hydroxy-benzylsulfanyl)-ethyl]-benzamide] had a melting point of 61 to 62 °C. In addition, in series [1], the inhibition at 10 µM was -22.5%, the inhibition at 30 µM was -25.2% and the “Aβ secretion inhibiting activity” value was “not well tolerated”. Moreover, in series [2], the “Cell protein (% decrease) 10 μM Mean” value was determined as 10.5% and the “Cell protein (% decrease) 30 μM Mean” value came out at 14.3%.
For `COc1cccc(OC)c1C(=O)NCCSCc1cccc(Cl)c1` [Compound 36, N-[2-(3-Chloro-benzylsulfanyl)-ethyl]-2,6-dimethoxy-benzamide], the melting point lay within 90 to 91 °C. In series [1], the inhibition at 10 µM was -13.1%, the inhibition at 30 µM was determined as 11.2% and the “Aβ secretion inhibiting activity” value was “not well tolerated”. Besides, in series [2], the “Cell protein (% decrease) 10 μM Mean” value was determined as 7.1% and the “Cell protein (% decrease) 30 μM Mean” value is given as −0.6%.
For `N#Cc1cccc(CSCCNC(=O)c2c(Cl)cccc2Cl)c1` [Compound 38, 2,6-Dichloro-N-[2-(3-cyano-benzylsulfanyl)-ethyl]-benzamide], the melting point was 123 to 125 °C. For the same molecule, in series [1], the inhibition at 10 µM came out at 20%, the inhibition at 30 µM was determined as 38.7% and the “Aβ secretion inhibiting activity” value is recorded as “did not yield good activity”. Also, in series [2], the “Cell protein (% decrease) 10 μM Mean” value is recorded as −4.8% and the “Cell protein (% decrease) 30 μM Mean” value worked out at 4.3%.
`O=C(NCCSCc1cccc([N+](=O)[O-])c1)c1c(Cl)cccc1Cl` [Compound 40, 2,6-Dichloro-N-[2-(3-nitro-benzylsulfanyl)-ethyl]-benzamide] had a melting point of 76 to 78 °C. In series [1], the inhibition at 10 µM is over 50%, the inhibition at 30 µM is 72.5% and the “Aβ secretion inhibiting activity” value is listed as “good activity”. In series [2], the “Cell protein (% decrease) 10 μM Mean” value amounted to 7.5% and the “Cell protein (% decrease) 30 μM Mean” value worked out at 24.6%.
`Nc1cccc(CSCCNC(=O)c2c(Cl)cccc2Cl)c1` [Compound 41, N-[2-(3-Amino-benzylsulfanyl)-ethyl]-2,6-dichloro-benzamide] displayed a melting point of 55 to 56 °C. Moreover, in series [1], the inhibition at 10 µM was 0.1%, the inhibition at 30 µM worked out at 17% and the “Aβ secretion inhibiting activity” value was “did not yield good activity”. In series [2], the “Cell protein (% decrease) 10 μM Mean” value worked out at 15.3% and the “Cell protein (% decrease) 30 μM Mean” value was 13.1%.
The molecule `COc1cccc(CSCCNC(=O)c2c(Cl)cccc2OC)c1` [Compound 42, 2-Chloro-6-methoxy-N-[2-(3-methoxy-benzylsulfanyl)-ethyl]-benzamide] came in with a melting point of 58 to 59 °C. Further, in series [1], the inhibition at 10 µM was -2.9% and the inhibition at 30 µM was -4.7%. In addition, in series [2], the “Cell protein (% decrease) 10 μM Mean” value is on record as 1.9% and the “Cell protein (% decrease) 30 μM Mean” value was 9.3%.
Consider `CCOC(=O)c1cccc(CSCCNC(=O)c2c(Cl)cccc2Cl)c1` [Compound 43, 3-[2-(2,6-Dichloro-benzoylamino)-ethylsulfanylmethyl]-benzoic Acid Ethyl Ester], for which the melting point was in the range of 43 to 45 °C. For the same molecule, in series [1], the inhibition at 10 µM turned out to be 3%, the inhibition at 30 µM was determined as 10.1% and the “Aβ secretion inhibiting activity” value is given as “did not yield good activity”. In series [2], the “Cell protein (% decrease) 10 μM Mean” value is on record as 5.8% and the “Cell protein (% decrease) 30 μM Mean” value is recorded as 5.4%.
In turn, `O=C(O)c1cccc(CSCCNC(=O)c2c(Cl)cccc2Cl)c1` [Compound 44, 3-[2-(2,6-Dichloro-benzoylamino)-ethylsulfanylmethyl]-benzoic Acid] showed a melting point of 165 to 166 °C. Also, in series [1], the inhibition at 10 µM is -11.4%, the inhibition at 30 µM was -3.8% and the “Aβ secretion inhibiting activity” value is reported as “did not yield good activity”. In series [2], the “Cell protein (% decrease) 10 μM Mean” value was found to be 7.1% and the “Cell protein (% decrease) 30 μM Mean” value is 3.2%.
`NC(=O)c1cccc(CSCCNC(=O)c2c(Cl)cccc2Cl)c1` [Compound 45, N-[2-(3-Carbamoyl-benzylsulfanyl)-ethyl]-2,6-dichloro-benzamide] came in with a melting point of 148 to 150 °C. In series [1], the inhibition at 10 µM stood at 6.2%, the inhibition at 30 µM is 32.3% and the “Aβ secretion inhibiting activity” value is listed as “did not yield good activity”. In series [2], the “Cell protein (% decrease) 10 μM Mean” value is listed as −2.8% and the “Cell protein (% decrease) 30 μM Mean” value was −8.6%.
`O=C(NCCSCc1cccc(F)c1)c1c(F)cccc1F` [Compound 46, 2,6-Difluoro-N-[2-(3-fluoro-benzylsulfanyl)-ethyl]-benzamide] showed a melting point of 39 to 41 °C. For the same molecule, in series [1], the inhibition at 10 µM is -16.8% and the inhibition at 30 µM is -15.5%. Besides, in series [2], the “Cell protein (% decrease) 10 μM Mean” value stood at 0.1% and the “Cell protein (% decrease) 30 μM Mean” value was determined as 1.8%.
In turn, `O=C(NCCSCc1cccc(F)c1)c1c(Cl)cccc1Cl` [Compound 47, 2,6-Dichloro-N-[2-(3-fluoro-benzylsulfanyl)-ethyl]-benzamide] yielded a melting point of 70 to 72 °C. Besides, in series [1], the inhibition at 10 µM came to 10.2%, the inhibition at 30 µM is 36.1% and the “Aβ secretion inhibiting activity” value is “did not yield good activity”. In series [2], the “Cell protein (% decrease) 10 μM Mean” value is 2.6% and the “Cell protein (% decrease) 30 μM Mean” value turned out to be 3.7%.
`O=Cc1cccc(CSCCNC(=O)c2c(Cl)cccc2Cl)c1` [Compound 49, 2,6-Dichloro-N-[2-(3-formyl-benzylsulfanyl)-ethyl]-benzamide] displayed a melting point of 63 to 65 °C. Moreover, in series [1], the inhibition at 10 µM turned out to be 19.9%, the inhibition at 30 µM was determined as 36.4% and the “Aβ secretion inhibiting activity” value is recorded as “did not yield good activity”. In series [2], the “Cell protein (% decrease) 10 μM Mean” value is 1.5% and the “Cell protein (% decrease) 30 μM Mean” value was −2.1%.
`O=C(NCCSCc1cccc(C(F)(F)F)c1)c1c(Cl)cccc1Cl` [Compound 50, 2,6-Dichloro-N-[2-(3-trifluoromethyl-benzylsulfanyl)-ethyl]-benzamide] returned a melting point of 54 to 55 °C. In series [1], the inhibition at 30 µM was 93.4% and the “Aβ secretion inhibiting activity” value is on record as “good activity”. Further, the “Cell protein (% decrease) 10 μM Mean” value in series [2] came out at 19%.
For `O=C(NCCSCc1cccc(Br)c1)c1c(Cl)cccc1Cl` [Compound 51, N-[2-(3-Bromo-benzylsulfanyl)-ethyl]-2,6-dichloro-benzamide], the melting point is 74 to 76 °C. In addition, in series [1], the inhibition at 30 µM came to 90.1% and the “Aβ secretion inhibiting activity” value is recorded as “good activity”. Moreover, in series [2], the “Cell protein (% decrease) 10 μM Mean” value stood at 12.3% and the “Cell protein (% decrease) 30 μM Mean” value is recorded as 38.6%.
